Reference: PubChem BioAssay AID1963840 (Molecular Pharmacology Branch, DTP, NCI, 2024)

Test system: 695427-040-R-J1-PDC complex spheroid viability
Assay: Anticancer human tumor 695427-040-R-J1-PDC patient-derived colon adenocarcinoma cell line growth inhibition [POLQ]
Settings: for IC50: curve of first compound; for viability, T/C: stronger effect = lower value
In short: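 Patient-derived tumour cells were co-cultured with HUVEC and mesenchymal stem cells as multicellular spheroids at 37 °C. They were treated with POLQ inhibitors (novobiocin, ART-558, RP6685) alone or combined with other agents. Top concentrations were at or near clinical Cmax (otherwise 10 microM; SN-38 at 1 microM), decreasing in half-log steps.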

[1] = second compound 0.0316 µM, first compound 0.0316 µM
[2] = second compound 0.0316 µM, first compound 0.1 µM
[3] = second compound 0.0316 µM, first compound 0.316 µM
[4] = second compound 0.0316 µM, first compound 1 µM
[5] = second compound 0.0316 µM, first compound 3.16 µM
[6] = second compound 0.0316 µM, first compound 10 µM
[7] = second compound 0.1 µM, first compound 0.0316 µM
[8] = second compound 0.1 µM, first compound 0.1 µM
[9] = second compound 0.1 µM, first compound 0.316 µM
[10] = second compound 0.1 µM, first compound 1 µM
[11] = second compound 0.1 µM, first compound 3.16 µM
[12] = second compound 0.1 µM, first compound 10 µM
[13] = second compound 0.316 µM, first compound 0.0316 µM
[14] = second compound 0.316 µM, first compound 0.1 µM
[15] = second compound 0.316 µM, first compound 0.316 µM
[16] = second compound 0.316 µM, first compound 1 µM
[17] = second compound 0.316 µM, first compound 3.16 µM
[18] = second compound 0.316 µM, first compound 10 µM
[19] = second compound 1 µM, first compound 0.0316 µM
[20] = second compound 1 µM, first compound 0.1 µM
[21] = second compound 1 µM, first compound 0.316 µM
[22] = second compound 1 µM, first compound 1 µM
[23] = second compound 1 µM, first compound 3.16 µM
[24] = second compound 1 µM, first compound 10 µM
[25] = second compound 3.16 µM, first compound 0.0316 µM
[26] = second compound 3.16 µM, first compound 0.1 µM
[27] = second compound 3.16 µM, first compound 0.316 µM
[28] = second compound 3.16 µM, first compound 1 µM
[29] = second compound 3.16 µM, first compound 3.16 µM
[30] = second compound 3.16 µM, first compound 10 µM
[31] = second compound 10 µM, first compound 0.0316 µM
[32] = second compound 10 µM, first compound 0.1 µM
[33] = second compound 10 µM, first compound 0.316 µM
[34] = second compound 10 µM, first compound 1 µM
[35] = second compound 10 µM, first compound 3.16 µM
[36] = second compound 10 µM, first compound 10 µM
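Also: spheroids exposed to compounds for seven days.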
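For viability, T/C in this document: 100% = DMSO vehicle control viability.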

Question: What does the source list for `COc1cc2cc(C(=O)CCC(=O)O)sc2cc1OC` + COC1C(OC(N)=O)C(O)C(Oc2ccc3c(O)c(NC(=O)c4ccc(O)c(CC=C(C)C)c4)c(=O)oc3c2C)OC1(C)C?
Answer: IC50 (second compound 0.0316 µM): > 10 µM; IC50 (second compound 0.1 µM): > 10 µM; IC50 (second compound 0.316 µM): > 10 µM; IC50 (second compound 1 µM): > 10 µM; IC50 (second compound 3.16 µM): > 10 µM; IC50 (second compound 10 µM): > 10 µM; viability, T/C [1]: 98.3%; viability, T/C [2]: 86.9%; viability, T/C [3]: 101%; viability, T/C [4]: 104%; viability, T/C [5]: 112%; viability, T/C [6]: 107%; viability, T/C [7]: 117%; viability, T/C [8]: 103%; viability, T/C [9]: 106%; viability, T/C [10]: 99.2%; viability, T/C [11]: 109%; viability, T/C [12]: 103%; viability, T/C [13]: 108%; viability, T/C [14]: 105%; viability, T/C [15]: 99.8%; viability, T/C [16]: 107%; viability, T/C [17]: 101%; viability, T/C [18]: 99.3%; viability, T/C [19]: 104%; viability, T/C [20]: 109%; viability, T/C [21]: 100%; viability, T/C [22]: 106%; viability, T/C [23]: 101%; viability, T/C [24]: 103%; viability, T/C [25]: 102%; viability, T/C [26]: 94.2%; viability, T/C [27]: 97.4%; viability, T/C [28]: 106%; viability, T/C [29]: 103%; viability, T/C [30]: 93.8%; viability, T/C [31]: 102%; viability, T/C [32]: 102%; viability, T/C [33]: 114%; viability, T/C [34]: 120%; viability, T/C [35]: 104%; viability, T/C [36]: 109%

Question: What does the source list for `CC(C)n1c(=O)n(C)c2cnc3cc(F)c(-c4ccc(OCCCN5CCCCC5)nc4)cc3c21` + Cc1cccc(N(C)C(=O)C2C(O)CCN2c2nc(C)cc(C(F)(F)F)c2C#N)c1?
Answer: IC50 (second compound 0.0316 µM): > 10 µM; IC50 (second compound 0.1 µM): > 10 µM; IC50 (second compound 0.316 µM): > 10 µM; IC50 (second compound 1 µM): > 10 µM; IC50 (second compound 3.16 µM): > 10 µM; IC50 (second compound 10 µM): > 10 µM; viability, T/C [1]: 97.5%; viability, T/C [2]: 98.8%; viability, T/C [3]: 101%; viability, T/C [4]: 111%; viability, T/C [5]: 98.3%; viability, T/C [6]: 75.8%; viability, T/C [7]: 99.3%; viability, T/C [8]: 102%; viability, T/C [9]: 110%; viability, T/C [10]: 108%; viability, T/C [11]: 96.8%; viability, T/C [12]: 70.3%; viability, T/C [13]: 104%; viability, T/C [14]: 101%; viability, T/C [15]: 106%; viability, T/C [16]: 113%; viability, T/C [17]: 92.7%; viability, T/C [18]: 68.7%; viability, T/C [19]: 101%; viability, T/C [20]: 102%; viability, T/C [21]: 105%; viability, T/C [22]: 103%; viability, T/C [23]: 102%; viability, T/C [24]: 67.2%; viability, T/C [25]: 98.5%; viability, T/C [26]: 100%; viability, T/C [27]: 102%; viability, T/C [28]: 98.5%; viability, T/C [29]: 98.2%; viability, T/C [30]: 67%; viability, T/C [31]: 93.5%; viability, T/C [32]: 99.9%; viability, T/C [33]: 99.6%; viability, T/C [34]: 101%; viability, T/C [35]: 100%; viability, T/C [36]: 55.7%

Question: How did the IC50 (second compound 0.0316 µM) turn out when `O=C(Nc1ccc(O)c(NS(=O)(=O)c2ccc(F)cc2)c1)c1ccc(-c2ccccc2)cc1` + Cc1cccc(N(C)C(=O)C2C(O)CCN2c2nc(C)cc(C(F)(F)F)c2C#N)c1 was run?
Answer: > 10 µM

Question: And the IC50 (second compound 0.1 µM)?
Answer: > 10 µM

Question: What about the IC50 (second compound 0.316 µM) of the same compound?
Answer: > 10 µM

Question: And the IC50 (second compound 1 µM)?
Answer: > 10 µM

Question: What about the IC50 (second compound 3.16 µM) of the same compound?
Answer: > 10 µM

Question: And the IC50 (second compound 10 µM)?
Answer: > 10 µM

Question: And the viability, T/C [1]?
Answer: 111%

Question: And the viability, T/C [2]?
Answer: 107%

Question: What about the viability, T/C [3] of the same compound?
Answer: 92.2%

Question: And the viability, T/C [4]?
Answer: 103%

Question: What about the viability, T/C [5] of the same compound?
Answer: 108%

Question: What about the viability, T/C [6] of the same compound?
Answer: 98.4%

Question: What about the viability, T/C [7] of the same compound?
Answer: 105%

Question: And the viability, T/C [8]?
Answer: 101%

Question: What about the viability, T/C [9] of the same compound?
Answer: 95.9%

Question: What about the viability, T/C [10] of the same compound?
Answer: 99.5%

Question: And the viability, T/C [11]?
Answer: 112%

Question: What about the viability, T/C [12] of the same compound?
Answer: 88.2%

Question: And the viability, T/C [13]?
Answer: 104%

Question: What about the viability, T/C [14] of the same compound?
Answer: 103%

Question: And the viability, T/C [15]?
Answer: 97.4%

Question: What about the viability, T/C [16] of the same compound?
Answer: 101%

Question: What about the viability, T/C [17] of the same compound?
Answer: 111%

Question: And the viability, T/C [18]?
Answer: 86.9%

Question: What about the viability, T/C [19] of the same compound?
Answer: 109%

Question: What about the viability, T/C [20] of the same compound?
Answer: 95.9%

Question: And the viability, T/C [21]?
Answer: 101%

Question: And the viability, T/C [22]?
Answer: 94.4%

Question: What about the viability, T/C [23] of the same compound?
Answer: 115%

Question: What about the viability, T/C [24] of the same compound?
Answer: 92.3%

Question: What about the viability, T/C [25] of the same compound?
Answer: 97.6%

Question: And the viability, T/C [26]?
Answer: 101%

Question: And the viability, T/C [27]?
Answer: 93.5%

Question: And the viability, T/C [28]?
Answer: 103%

Question: And the viability, T/C [29]?
Answer: 103%

Question: And the viability, T/C [30]?
Answer: 93.6%

Question: And the viability, T/C [31]?
Answer: 103%

Question: What about the viability, T/C [32] of the same compound?
Answer: 92.2%

Question: And the viability, T/C [33]?
Answer: 96.1%

Question: And the viability, T/C [34]?
Answer: 94%

Question: What about the viability, T/C [35] of the same compound?
Answer: 102%

Question: And the viability, T/C [36]?
Answer: 82.6%

Question: Which results are given for `CCc1cc2c(N3CCc4c(cc(Cn5ccnc5)cc4-c4cn(C)nc4C(F)(F)F)C3=O)ccnc2c(OC)n1` + Nc1ccc(C#CCN(C(=O)Cc2ncc(C(F)(F)F)cc2C(F)(F)F)c2ccc(F)cc2)nn1?
Answer: IC50 (second compound 0.0316 µM): > 10 µM; IC50 (second compound 0.1 µM): > 10 µM; IC50 (second compound 0.316 µM): > 10 µM; IC50 (second compound 1 µM): > 10 µM; IC50 (second compound 3.16 µM): > 10 µM; IC50 (second compound 10 µM): > 10 µM; viability, T/C [1]: 102%; viability, T/C [2]: 106%; viability, T/C [3]: 94.6%; viability, T/C [4]: 95.8%; viability, T/C [5]: 105%; viability, T/C [6]: 96%; viability, T/C [7]: 115%; viability, T/C [8]: 112%; viability, T/C [9]: 101%; viability, T/C [10]: 100%; viability, T/C [11]: 105%; viability, T/C [12]: 102%; viability, T/C [13]: 118%; viability, T/C [14]: 115%; viability, T/C [15]: 93%; viability, T/C [16]: 104%; viability, T/C [17]: 103%; viability, T/C [18]: 87.6%; viability, T/C [19]: 116%; viability, T/C [20]: 95.1%; viability, T/C [21]: 102%; viability, T/C [22]: 104%; viability, T/C [23]: 114%; viability, T/C [24]: 84.5%; viability, T/C [25]: 116%; viability, T/C [26]: 104%; viability, T/C [27]: 93.6%; viability, T/C [28]: 104%; viability, T/C [29]: 103%; viability, T/C [30]: 90%; viability, T/C [31]: 101%; viability, T/C [32]: 93.2%; viability, T/C [33]: 101%; viability, T/C [34]: 110%; viability, T/C [35]: 97.7%; viability, T/C [36]: 96.7%
